Results from ChEMBL document CHEMBL5331107 (J Med Chem, 2023).

Tests used:
[1] = MRT (0 to last) in Sprague-Dawley rat at 2 mg/kg, iv measured at 5 to 600 min by LC-MS/MS analysis; type: ADME, organism-based; settings: in vivo, time 5-600 min
[2] = Metabolic stability in human plasma assessed as compound remaining incubated for 120 mins by LC-MS/MS analysis; type: ADME, cell-free; settings: read-out: Stability
[3] = test system: Human immunodeficiency virus 1; assay: Antiviral activity against NNRTI-resistant HIV-1 harboring L100I mutant infected in human MT4 cells assessed as protection against virus-induced cytopathic effect incubated for 5 days by MTT assay; type: functional, organism-based; settings: Human immunodeficiency virus 1, MT4, 120 h
[4] = Cytotoxicity against human MT4 cells assessed as reduction in cell viability incubated for 5 days by MTT assay; type: toxicity, cell-based; settings: time 5 day
[5] = Subacute toxicity in Kunming mouse assessed as animal death at 50 mg/kg, IG administered via gavage every other day and measured after 14 days; type: organism-based; settings: in vivo, po, 336 h, time 14 day
[6] = Subacute toxicity in Kunming mouse assessed as effect on body weight at 50 mg/kg, IG administered via gavage every other day and measured after 14 days; type: organism-based; settings: in vivo, po, 336 h, time 14 day
[7] = test system: Human immunodeficiency virus 1; assay: Antiviral activity against NNRTI-resistant HIV-1 harboring K103N mutant infected in human MT4 cells assessed as protection against virus-induced cytopathic effect incubated for 5 days by MTT assay; type: functional, organism-based; settings: Human immunodeficiency virus 1, MT4, 120 h
[8] = Acute toxicity in Kunming mouse assessed as effect on alopecia at 1000 mg/kg, IG administered as single dose and measured after 7 days; type: organism-based; settings: in vivo, po, 168 h, time 7 day
[9] = AUC (0 to infinity) in Sprague-Dawley rat at 10 mg/kg, po measured at 15 to 720 min by LC-MS/MS analysis; type: ADME, organism-based; parameters: dose 10 mg/kg, time upper 720 min, time lower 15 min, route po; settings: in vivo
[10] = Subacute toxicity in Kunming mouse assessed as histopathological change in liver at 50 mg/kg, IG administered via gavage every other day and measured after 14 days by H&E staining based analysis; type: organism-based; settings: in vivo, po, 336 h, time 14 day
[11] = test system: Human immunodeficiency virus 1; assay: Antiviral activity against NNRTI-resistant HIV-1 harboring E138K mutant infected in human MT4 cells assessed as protection against virus-induced cytopathic effect incubated for 5 days by MTT assay; type: functional, organism-based; settings: Human immunodeficiency virus 1, MT4, 120 h
[12] = Acute toxicity in Kunming mouse assessed as effect on dyspnea at 1000 mg/kg, IG administered as single dose and measured after 7 days; type: organism-based; settings: in vivo, po, 168 h, time 7 day
[13] = test system: Human immunodeficiency virus 1; assay: microbe, parasite or virus in culture; settings: Human immunodeficiency virus 1, IIIB, MT4, 120 h
Description: Antiviral activity against wild type HIV-1 IIIB infected in human MT4 cells assessed as protection against virus-induced cytopathic effect incubated for 5 days by MTT assay

[14] = test system: Human immunodeficiency virus 1; type: functional, organism-based; settings: Human immunodeficiency virus 1, MT4, 120 h
[15] = Clearance in Sprague-Dawley rat at 2 mg/kg, iv measured at 5 to 600 min by LC-MS/MS analysis; type: ADME, organism-based; settings: in vivo, time 5-600 min
[16] = AUC (0 to last) in Sprague-Dawley rat at 10 mg/kg, po measured at 15 to 720 min by LC-MS/MS analysis; type: ADME, organism-based; parameters: time upper 720 min, time lower 15 min, dose 10 mg/kg, route po; settings: in vivo
[17] = Metabolic stability in human liver assessed as intrinsic clearance incubated for 60 mins in the presence of NADPH by LC-MS/MS analysis; type: ADME, tissue-based; settings: read-out: CLH
[18] = Acute toxicity in Kunming mouse assessed as effect on anorexia at 1000 mg/kg, IG administered as single dose and measured after 7 days; type: organism-based; settings: in vivo, po, 168 h, time 7 day
[19] = Subacute toxicity in Kunming mouse assessed as dyspnoea at 50 mg/kg, IG administered via gavage every other day and measured after 14 days; type: organism-based; settings: in vivo, po, 336 h, time 14 day
[20] = test system: Human immunodeficiency virus 1; type: functional, organism-based; settings: Human immunodeficiency virus 1, MT4, 120 h; remark: listed apart in the source
[21] = Subacute toxicity in Kunming mouse assessed as histopathological change in heart at 50 mg/kg, IG administered via gavage every other day and measured after 14 days by H&E staining based analysis; type: organism-based; settings: in vivo, po, 336 h, time 14 day
[22] = test system: Human immunodeficiency virus 1; assay: Antiviral activity against NNRTI-resistant HIV-1 harboring F227L and V106A double mutant infected in human MT4 cells assessed as protection against virus-induced cytopathic effect incubated for 5 days by MTT assay; type: functional, organism-based; settings: Human immunodeficiency virus 1, MT4, 120 h
[23] = Volume of distribution in Sprague-Dawley rat at 2 mg/kg, iv measured at 5 to 600 min by LC-MS/MS analysis; type: ADME, organism-based; settings: in vivo, time 5-600 min
[24] = Acute toxicity in Kunming mouse assessed as tolerance at 1000 mg/kg, IG administered as single dose and measured after 7 days; type: organism-based; settings: in vivo, po, 168 h, time 7 day
[25] = Cmax in Sprague-Dawley rat at 10 mg/kg, po measured at 15 to 720 min by LC-MS/MS analysis; type: ADME, organism-based; parameters: dose 10 mg/kg, time 15-720 min, route po; settings: in vivo
[26] = Metabolic stability in human liver microsomes assessed as compound remaining measured after 60 mins in the presence of NADPH by LC-MS/MS analysis; type: ADME, Microsome; settings: liver microsomes, read-out: Stability
[27] = AUC(0 to infinity) in Sprague-Dawley rat at 2 mg/kg, iv measured at 5 to 600 min by LC-MS/MS analysis; type: ADME, organism-based; parameters: time 5-600 min, dose 2 mg/kg, route iv; settings: in vivo
[28] = Subacute toxicity in Kunming mouse assessed as histopathological change in kidney at 50 mg/kg, IG administered via gavage every other day and measured after 14 days by H&E staining based analysis; type: organism-based; settings: in vivo, po, 336 h, time 14 day
[29] = Subacute toxicity in Kunming mouse assessed as alopecia at 50 mg/kg, IG administered via gavage every other day and measured after 14 days; type: organism-based; settings: in vivo, po, 336 h, time 14 day
[30] = Acute toxicity in Kunming mouse assessed as effect on lethargy at 1000 mg/kg, IG administered as single dose and measured after 7 days; type: organism-based; settings: in vivo, po, 168 h, time 7 day
[31] = Half-life in Sprague-Dawley rat at 2 mg/kg, iv measured at 5 to 600 min by LC-MS/MS analysis; type: ADME, organism-based; settings: in vivo, time 5-600 min
[32] = Subacute toxicity in Kunming mouse assessed as histopathological change in spleen at 50 mg/kg, IG administered via gavage every other day and measured after 14 days by H&E staining based analysis; type: organism-based; settings: in vivo, po, 336 h, time 14 day
[33] = Subacute toxicity in Kunming mouse assessed as at 50 mg/kg, po administered every other day and measured after 14 days; type: organism-based; settings: in vivo, 336 h, time 14 day
[34] = MRT (0 to infinity) in Sprague-Dawley rat at 2 mg/kg, iv measured at 5 to 600 min by LC-MS/MS analysis; type: ADME, organism-based; settings: in vivo, time 5-600 min
[35] = Subacute toxicity in Kunming mouse assessed as histopathological change in lung at 50 mg/kg, IG administered via gavage every other day and measured after 14 days by H&E staining based analysis; type: organism-based; settings: in vivo, po, 336 h, time 14 day
[36] = Half-life in Sprague-Dawley rat at 10 mg/kg, po measured at 15 to 720 min by LC-MS/MS analysis; type: ADME, organism-based; settings: in vivo, time 15-720 min
[37] = Tmax in Sprague-Dawley rat at 10 mg/kg, po measured at 15 to 720 min by LC-MS/MS analysis; type: ADME, organism-based; settings: in vivo, time 15-720 min
[38] = Acute toxicity in Kunming mouse upto 1000 mg/kg, IG administered as single dose and measured after 7 days; type: organism-based; settings: in vivo, po, 168 h, time 7 day
[39] = Subacute toxicity in Kunming mouse assessed as anorexia at 50 mg/kg, IG administered via gavage every other day and measured after 14 days; type: organism-based; settings: in vivo, po, 336 h, time 14 day
[40] = Metabolic stability in human liver microsomes assessed as intrinsic clearance incubated for 60 mins in the presence of NADPH by LC-MS/MS analysis; settings: liver microsomes
[41] = Metabolic stability in human plasma assessed as half-life incubated for 120 mins by LC-MS/MS analysis; type: ADME, cell-free
[42] = Subacute toxicity in Kunming mouse assessed as lethargy at 50 mg/kg, IG administered via gavage every other day and measured after 14 days; type: organism-based; settings: in vivo, po, 336 h, time 14 day
[43] = target: Human immunodeficiency virus type 1 reverse transcriptase (Human immunodeficiency virus 1, UniProt Q72547); assay: Inhibition of HIV-1 reverse transcriptase assessed as assessed as reduction of biotin-dUTP incorporation into […] incubated for 1 hrs by ELISA analysis
[44] = Acute toxicity in Kunming mouse assessed as effect on animal death at 1000 mg/kg, IG administered as single dose and measured after 7 days; type: organism-based; settings: in vivo, po, 168 h, time 7 day
[45] = AUC(0 to last) in Sprague-Dawley rat at 2 mg/kg, iv measured at 5 to 600 min by LC-MS/MS analysis; type: ADME, organism-based; parameters: dose 2 mg/kg, time upper 600 min, time lower 5 min, route iv; settings: in vivo
[46] = Acute toxicity in Kunming mouse assessed as effect on body weight at 1000 mg/kg, IG administered as single dose and measured after 7 days; type: organism-based; settings: in vivo, po, 168 h, time 7 day
[47] = MRT (0 to infinity) in Sprague-Dawley rat at 10 mg/kg, po measured at 15 to 720 min by LC-MS/MS analysis; type: ADME, organism-based; settings: in vivo, time 15-720 min
[48] = Metabolic stability in human liver microsomes assessed as half-life incubated for 60 mins in the presence of NADPH by LC-MS/MS analysis; type: ADME, Microsome; settings: liver microsomes
[49] = test system: Human immunodeficiency virus 1; type: functional, organism-based; settings: Human immunodeficiency virus 1, MT4, 120 h; remark: listed apart in the source

## CCC(=O)N1CCc2nc(Nc3ccc(C#N)cc3)nc(Oc3c(C)cc(C#N)cc3C)c2C1
[1]
  MRT last: 38.9 min
[2]
  remaining at 2 h: 97.1%
[3]
  EC50: 14.6 nM
[4]
  CC50 at 120 h: 10.8 µM
[5]
  Activity: Non-Toxic
[6]
  Activity: Non-Toxic
[7]
  EC50: 1.88 nM
[8]
  Activity: Non-Toxic
[9]
  AUC(0-inf): 23.4 ng·h/mL
[10]
  Activity: Non-Toxic
[11]
  EC50: 11 nM
[12]
  Activity: Non-Toxic
[13]
  EC50: 2.71 nM
[14]
  EC50: 14.9 nM
[15]
  clearance: 19.4 mL/min/kg
[16]
  AUC(0-t): 16 ng·h/mL
[17]
  CLint scaled: 125 mL/min/kg
[18]
  Activity: Non-Toxic
[19]
  Activity: Non-Toxic
[20]
  EC50: 10.9 nM
[21]
  Activity: Non-Toxic
[22]
  EC50: 38.8 nM
[23]
  Vd: 0.771 L/kg
[24]
  Activity: Non-Toxic
[25]
  Cmax: 7.71 ng/mL
[26]
  remaining at 1 h: 1.6%
[27]
  AUC(0-inf): 1740 ng·h/mL
[28]
  Activity: Non-Toxic
[29]
  Activity: Non-Toxic
[30]
  Activity: Non-Toxic
[31]
  half-life: 56.5 min
[32]
  Activity: Non-Toxic
[33]
  Activity: Non-Toxic
[34]
  MRT inf: 39.8 min
[35]
  Activity: Non-Toxic
[36]
  half-life: 142 min
[37]
  Tmax: 30 min
[38]
  Activity: Non-Toxic
[39]
  Activity: Non-Toxic
[40]
  microsomal CLint at 1 h: 138 µL/min/mg
[41]
  half-life: > 289 min
[42]
  Activity: Non-Toxic
[43]
  IC50: 70 nM
[44]
  Activity: Non-Toxic
[45]
  AUC(0-t): 1730 ng·h/mL
[46]
  Activity: Non-Toxic
[47]
  MRT inf: 3.57 h
[48]
  half-life: 10 min
[49]
  EC50: 31 nM
